Laboratory results taken from the NIST ThermoML archive (doi:10.1016/j.jct.2005.10.019).

What was measured:
[1] = excess molar enthalpy (molar enthalpy of mixing); xn = mol fraction of the nth substance listed; settings: 298.15 K, 101 kPa, Liquid
[2] = 298.15 K; 101.33 kPa; Liquid

C[C@@H]1COC(=O)O1 [(R)-4-methyl-1,3-dioxolan-2-one] + C[C@H]1COC(=O)O1
[1]
Settings | excess molar enthalpy [kcal/mol]
x2 = 0.02206 | -0.000169
x2 = 0.04317 | -0.000327
x2 = 0.06338 | -0.00048
x2 = 0.06919 | -0.00046
x2 = 0.08276 | -0.000615
x2 = 0.1014 | -0.000734
x2 = 0.1192 | -0.000848
x2 = 0.1294 | -0.000859
x2 = 0.1364 | -0.000953
x2 = 0.1529 | -0.00105
x2 = 0.1688 | -0.00114
x2 = 0.1823 | -0.00115
x2 = 0.1841 | -0.00122
x2 = 0.1988 | -0.00129
x2 = 0.213 | -0.00136
x2 = 0.2268 | -0.00142
x2 = 0.2292 | -0.00143
x2 = 0.2709 | -0.00163
x2 = 0.3084 | -0.0017
x2 = 0.3422 | -0.00178
x2 = 0.3673 | -0.00185
x2 = 0.3729 | -0.00186
x2 = 0.3988 | -0.00191
x2 = 0.4008 | -0.00191
x2 = 0.4264 | -0.00196
x2 = 0.4363 | -0.00197
x2 = 0.4366 | -0.00198
x2 = 0.4627 | -0.00203
x2 = 0.4815 | -0.00201
x2 = 0.4921 | -0.00205
x2 = 0.5254 | -0.00205
x2 = 0.5372 | -0.00199
x2 = 0.5551 | -0.002
x2 = 0.5959 | -0.00197
x2 = 0.6186 | -0.00195
x2 = 0.6431 | -0.00192
x2 = 0.6596 | -0.00184
x2 = 0.6697 | -0.00184
x2 = 0.6985 | -0.00176
x2 = 0.699 | -0.0017
x2 = 0.7209 | -0.00166
x2 = 0.73 | -0.00162
x2 = 0.7641 | -0.00146
x2 = 0.7644 | -0.00151
x2 = 0.7782 | -0.0014
x2 = 0.7929 | -0.00133
x2 = 0.7949 | -0.00133
x2 = 0.7997 | -0.00129
x2 = 0.8022 | -0.00132
x2 = 0.8081 | -0.00126
x2 = 0.8122 | -0.00124
x2 = 0.8228 | -0.00114
x2 = 0.8239 | -0.00118
x2 = 0.8252 | -0.00118
x2 = 0.8385 | -0.00111
x2 = 0.8404 | -0.00109
x2 = 0.8439 | -0.00109
x2 = 0.8522 | -0.00104
x2 = 0.8575 | -0.000996
x2 = 0.8665 | -0.000943
x2 = 0.8753 | -0.00089
x2 = 0.8812 | -0.000858
x2 = 0.8857 | -0.000833
x2 = 0.8902 | -0.000801
x2 = 0.8939 | -0.000772
x2 = 0.8964 | -0.000764
x2 = 0.9121 | -0.00066
x2 = 0.9133 | -0.000646
x2 = 0.9285 | -0.000551
x2 = 0.9335 | -0.000502
x2 = 0.9419 | -0.00044
x2 = 0.9454 | -0.000425
x2 = 0.9547 | -0.00035
x2 = 0.9629 | -0.000295
x2 = 0.9768 | -0.000184
x2 = 0.9811 | -0.000151

C[C@@H](O)c1ccccc1 [(R)-(+)-1-phenylethanol]
Settings | mass density [kg/m3]
[2] | 1012.4

C[C@@H](NCc1ccccc1)c1ccccc1 [(R)-(+)-N-benzyl-1-phenylethylamine]
Settings | mass density [kg/m3]
[2] | 1007.7

C[C@@H](N)c1ccccc1 [(R)-(+)-α-methylbenzylamine]
Settings | mass density [kg/m3]
[2] | 965.38

C[C@H]1COC(=O)O1 [(S)-4-methyl-1,3-dioxolan-2-one]
Settings | mass density [kg/m3]
[2] | 1199.5

C[C@H](O)c1ccccc1 [(S)-(-)-1-phenylethanol]
Settings | mass density [kg/m3]
[2] | 1012.3
